Patent publication US9464084B2, “P2X7 modulators” (Janssen Pharmaceutica NV, priority 2013, dated 2016)

Columns and labels:
[1] = biological target: rat P2X7 (Rattus norvegicus (Rat), UniProt Q64663); assay: Ca2+ flux (FLIPR) in 1321N1 cells expressing recombinant rat P2X7 channel; assay type: cell-based; details: 250 μM BzATP;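 further: Calcium-4 dye fluorescence change read 180 s after agonist addition, following 30 min cell preincubation with test compound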
Protocol: Cells were seeded at a density of 25000 cells/well (96-well clear bottom black walled plates) in 100 μl volume/well. On the day of the experiment, cell plates were washed with assay buffer, containing (in mM): 130 NaCl, 2 KCl, 1 CaCl2, 1 MgCl2, 10 HEPES, 5 glucose; pH 7.40 and 300 mOs. After the wash, cells were loaded with the Calcium-4 dye (Molecular Device) and incubated in the dark for 60 minutes. Test compounds were prepared at 250× the test concentration in neat DMSO. Intermediate 96-well compound plates were prepared by transferring 1.2 μL of the compound into 300 μL of assay buffer. A further 3× dilution occurred when transferring 50 μL/well of the compound plate to 100 μL/well in the cell plate. Cells were incubated with test compounds and dye for 30 minutes. […] The fluorescence change was measured 180 seconds after adding the agonist.

[2] = biological target: P2X7 (Homo sapiens (Human), UniProt Q99572); assay: P2X7 antagonism in human PBMCs (LPS + Bz-ATP induced IL-1β release, ELISA); assay type: cell-based; details: LPS 30 ng/ml, Bz-ATP 0.5 mM; for PBMC 10 μM (% control): compound 10 μM; for PBMC 1 μM (% control): compound 1 μM;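 on all read-outs here: PBMCs from donor human blood, with a further 1.5 h incubation of the cells in the assay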
Chain of P2X7 (Q99572 whole entry): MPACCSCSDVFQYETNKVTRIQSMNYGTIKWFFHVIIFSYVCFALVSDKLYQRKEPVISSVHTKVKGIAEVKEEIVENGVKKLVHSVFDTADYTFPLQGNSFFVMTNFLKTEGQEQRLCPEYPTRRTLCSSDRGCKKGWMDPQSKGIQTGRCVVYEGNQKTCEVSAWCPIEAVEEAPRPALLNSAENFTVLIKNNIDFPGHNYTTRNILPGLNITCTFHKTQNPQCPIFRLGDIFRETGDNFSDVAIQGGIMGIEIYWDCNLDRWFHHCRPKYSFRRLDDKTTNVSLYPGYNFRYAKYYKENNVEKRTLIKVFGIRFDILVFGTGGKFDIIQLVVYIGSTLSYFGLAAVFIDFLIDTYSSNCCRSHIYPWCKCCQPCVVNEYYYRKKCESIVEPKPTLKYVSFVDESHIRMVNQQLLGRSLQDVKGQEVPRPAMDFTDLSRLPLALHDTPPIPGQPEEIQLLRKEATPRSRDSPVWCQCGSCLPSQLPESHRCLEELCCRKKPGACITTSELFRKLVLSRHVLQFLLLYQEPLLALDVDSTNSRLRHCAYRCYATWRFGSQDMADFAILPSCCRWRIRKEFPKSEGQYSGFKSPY

Chain of rat P2X7 (Q64663 whole entry): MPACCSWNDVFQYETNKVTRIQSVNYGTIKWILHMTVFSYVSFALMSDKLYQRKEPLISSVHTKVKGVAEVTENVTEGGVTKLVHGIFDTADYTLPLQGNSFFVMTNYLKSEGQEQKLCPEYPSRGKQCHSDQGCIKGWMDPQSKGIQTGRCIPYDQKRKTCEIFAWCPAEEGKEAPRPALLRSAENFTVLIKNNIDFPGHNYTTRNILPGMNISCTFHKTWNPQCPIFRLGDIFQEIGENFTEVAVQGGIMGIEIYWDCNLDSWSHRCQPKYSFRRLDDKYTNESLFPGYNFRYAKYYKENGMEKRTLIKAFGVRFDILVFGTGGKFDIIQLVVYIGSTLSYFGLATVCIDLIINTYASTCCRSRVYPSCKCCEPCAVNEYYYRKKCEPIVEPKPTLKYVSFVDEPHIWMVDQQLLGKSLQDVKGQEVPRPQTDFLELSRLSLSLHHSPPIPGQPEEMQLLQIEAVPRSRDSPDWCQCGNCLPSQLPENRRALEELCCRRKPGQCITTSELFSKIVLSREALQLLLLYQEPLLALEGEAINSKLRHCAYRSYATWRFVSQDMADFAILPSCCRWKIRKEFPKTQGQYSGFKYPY

Structure (SMILES) | IC50 [1] [nM] | PBMC 10 μM (% control) [2] [% control] | PBMC 1 μM (% control) [2] [% control]
CC1c2ncn(-c3ccc(F)cn3)c2CCN1C(=O)c1cccc(C(F)(F)F)c1F (centres unmarked) [Example 262, (2-fluoro-3-(trifluoromethyl)phenyl)(1-(5-fluoropyridin-2-yl)-4-methyl-6,7-dihydro-1H-imidazo[4,5-c]pyridin-5(4H)-yl)methanone] | 1550 | −3.6 | 
Cc1ccnc(-n2nnc3c2CCN(C(=O)c2cccc(C(F)(F)F)c2F)C3C)n1 (centres unmarked) [Example 269, (2-fluoro-3-(trifluoromethyl)phenyl)(4-methyl-1-(4-methylpyrimidin-2-yl)-6,7-dihydro-1H-[1,2,3]triazolo[4,5-c]pyridin-5(4H)-yl)methanone] | 20.6 | 16.3 | 
CC1c2ncn(-c3ccc(F)cn3)c2C=CN1C(=O)c1cccc(C(F)(F)F)c1Cl (centres unmarked) [Example 321, (2-chloro-3-(trifluoromethyl)phenyl)(1-(5-fluoropyridin-2-yl)-4-methyl-1H-imidazo[4,5-c]pyridin-5(4H)-yl)methanone] | 589 | 14.1 | 
CC1(C)c2ncn(-c3ccccc3)c2CCN1C(=O)c1cccc(C(F)(F)F)c1Cl [Example 53, 5-{[2-Chloro-3-(trifluoromethyl)phenyl]carbonyl}-4,4-dimethyl-1-phenyl-4,5,6,7-tetrahydro-1H-imidazo[4,5-c]pyridine] | 4950 |  | 99.0
CCOc1cccnc1-n1nnc2c1CCN(C(=O)c1cccc(C(F)(F)F)c1Cl)[C@H]2C (single isomer, unassigned) [Example 317, (S*)-(2-chloro-3-(trifluoromethyl)phenyl)(1-(3-ethoxypyridin-2-yl)-4-methyl-6,7-dihydro-1H-[1,2,3]triazolo[4,5-c]pyridin-5(4H)-yl)methanone] | > 10000 | 4.8 | 
C[C@@H]1c2nnn(-c3ccn(CCF)n3)c2CCN1C(=O)c1cccc(C(F)(F)F)c1Cl (single isomer, unassigned) [Example 171, (R*)-(2-Chloro-3-(trifluoromethyl)phenyl)(1-(1-(2-fluoroethyl)-1H-pyrazol-3-yl)-4-methyl-6,7-dihydro-1H-[1,2,3]triazolo[4,5-c]pyridin-5(4H)-yl)methanone] | > 10000 | 28.7 | 
CC1CN(C(=O)c2cccc(C(F)(F)F)c2Cl)C(C)c2nnn(-c3ccccc3)c21 (centres unmarked) [Example 241, (2-Chloro-3-(trifluoromethyl)phenyl)(4,7-dimethyl-1-phenyl-6,7-dihydro-1H-[1,2,3]triazolo[4,5-c]pyridin-5(4H)-yl)methanone] | > 10000 | 6.5 | 
O=C(c1cccc(C(F)(F)F)c1Cl)N1CCc2c(ncn2-c2ccccn2)C1CF (centres unmarked) [Example 32, (2-Chloro-3-(trifluoromethyl)phenyl)(4-(fluoromethyl)-1-(pyridin-2-yl)-6,7-dihydro-1H-imidazo[4,5-c]pyridin-5(4H)-yl)methanone] | 65.5 | 1.9 | 
CCOc1cccnc1-n1nnc2c1CCN(C(=O)c1cccc(C(F)(F)F)c1Cl)[C@@H]2C (single isomer, unassigned) [Example 316, (R*)-(2-chloro-3-(trifluoromethyl)phenyl)(1-(3-ethoxypyridin-2-yl)-4-methyl-6,7-dihydro-1H-[1,2,3]triazolo[4,5-c]pyridin-5(4H)-yl)methanone] | 2210 | −9.6 | 
CCOc1cccnc1-n1nnc2c1CCN(C(=O)c1cccc(C(F)(F)F)c1Cl)C2C (centres unmarked) [Example 258, (2-Chloro-3-(trifluoromethyl)phenyl)(1-(3-ethoxypyridin-2-yl)-4-methyl-6,7-dihydro-1H-[1,2,3]triazolo[4,5-c]pyridin-5(4H)-yl)methanone] | 4840 | −3.2 | 

Other lines, results leading:

IC50 [1] [nM] | PBMC 10 μM (% control) [2] [% control] | PBMC 1 μM (% control) [2] [% control] | Structure (SMILES)
10.2 | 8.8 |  | CC1Cc2c(nnn2-c2cc(F)ccn2)CN1C(=O)c1cccc(Cl)c1Cl (centres unmarked) [Example 173, 5-[(2,3-Dichlorophenyl)carbonyl]-1-(4-fluoropyridin-2-yl)-6-methyl-4,5,6,7-tetrahydro-1H-[1,2,3]triazolo[4,5-c]pyridine]
32.4 |  | 1.6 | O=C(c1cccc(C(F)(F)F)c1Cl)N1C=Cc2c(nnn2-c2cnccn2)C1c1ccccc1 (centres unmarked) [Example 76, 5-{[2-Chloro-3-(trifluoromethyl)phenyl]carbonyl}-4-phenyl-1-pyrazin-2-yl-4,5-dihydro-1H-[1,2,3]triazolo[4,5-c]pyridine]
1920 | −3.7 |  | O=C(c1ccc(Cl)cc1Cl)N1CCc2c(nnn2-c2cnccn2)C1 [Example 277, (2,4-dichlorophenyl)(1-(pyrazin-2-yl)-6,7-dihydro-1H-[1,2,3]triazolo[4,5-c]pyridin-5(4H)-yl)methanone]
2620 | −3.1 |  | C[C@H]1Cc2c(nnn2-c2cc(F)ccn2)CN1C(=O)c1cccc(Cl)c1Cl (single isomer, unassigned) [Example 196, (6S*)-5-[(2,3-Dichlorophenyl)carbonyl]-1-(4-fluoropyridin-2-yl)-6-methyl-4,5,6,7-tetrahydro-1H-[1,2,3]triazolo[4,5-c]pyridine]
2.8 | −8.1 |  | CCc1ccnc(-n2nnc3c2CCN(C(=O)c2cccc(C(F)(F)F)c2Cl)[C@@H]3C)n1 (single isomer, unassigned) [Example 294, (R*)-(2-chloro-3-(trifluoromethyl)phenyl)(1-(4-ethylpyrimidin-2-yl)-4-methyl-6,7-dihydro-1H-[1,2,3]triazolo[4,5-c]pyridin-5(4H)-yl)methanone]
> 10000 | −4.3 |  | Cc1cc(C)nc(-n2nnc3c2CCN(C(=O)c2cccc(Cl)c2Cl)C3C)n1 (centres unmarked) [Example 179, (2,3-dichlorophenyl)(1-(4,6-dimethylpyrimidin-2-yl)-4-methyl-6,7-dihydro-1H-[1,2,3]triazolo[4,5-c]pyridin-5(4H)-yl)methanone]
1090 |  | 12.6 | O=C(c1cccc(C(F)(F)F)c1Cl)N1CCc2c(nnn2-c2ccccn2)C1 [Example 63, 5-{[2-Chloro-3-(trifluoromethyl)phenyl]carbonyl}-1-pyridin-2-yl-4,5,6,7-tetrahydro-1H-[1,2,3]triazolo[4,5-c]pyridine]
163 | −2.2 |  | Cc1ccc(-n2nnc3c2CCN(C(=O)c2cccc(C(F)(F)F)c2Cl)C3C)nc1 (centres unmarked) [Example 301, (2-chloro-3-(trifluoromethyl)phenyl)(4-methyl-1-(5-methylpyridin-2-yl)-6,7-dihydro-1H-[1,2,3]triazolo[4,5-c]pyridin-5(4H)-yl)methanone]
1300 | 5.2 |  | C[C@H]1c2ncn(-c3ccccn3)c2CCN1C(=O)c1cccc(Cl)c1Cl (single isomer, unassigned) [Example 191, (S*)-(2,3-Dichlorophenyl)(4-methyl-1-(pyridin-2-yl)-6,7-dihydro-1H-imidazo[4,5-c]pyridin-5(4H)-yl)methanone]
